One data set has as its target human recombinant CYP3A4 (Homo sapiens, UniProt P08684). Nature of the data set: Inhibition of dibenzylfluorescein metabolism by cDNA-expressed CYP3A4 (fluorimetric). The note with it: read-out: IC50 (concentration that yields 50% inhibition of the metabolism of dibenzyl-fluorescein), dibenzyl-fluorescein 5 · 10^−7 M.
The conditions of data set [1]: cited from earlier work.
For data set [2] the following is noted: poor metabolizers, 15 mg dose; cited from earlier work.
For data set [3] the following is noted: in vivo; cited from earlier work.
Data set [4] concerns the target T1, human recombinant CYP2A6 (Homo sapiens, UniProt P10635). Put plainly: biochemical.
Data set [5] has as its target T1, human recombinant CYP2A6. The settings on record: recombinant enzyme.

Where two headings read alike, the source gives them in different places.

T1 sequence (P10635 whole entry): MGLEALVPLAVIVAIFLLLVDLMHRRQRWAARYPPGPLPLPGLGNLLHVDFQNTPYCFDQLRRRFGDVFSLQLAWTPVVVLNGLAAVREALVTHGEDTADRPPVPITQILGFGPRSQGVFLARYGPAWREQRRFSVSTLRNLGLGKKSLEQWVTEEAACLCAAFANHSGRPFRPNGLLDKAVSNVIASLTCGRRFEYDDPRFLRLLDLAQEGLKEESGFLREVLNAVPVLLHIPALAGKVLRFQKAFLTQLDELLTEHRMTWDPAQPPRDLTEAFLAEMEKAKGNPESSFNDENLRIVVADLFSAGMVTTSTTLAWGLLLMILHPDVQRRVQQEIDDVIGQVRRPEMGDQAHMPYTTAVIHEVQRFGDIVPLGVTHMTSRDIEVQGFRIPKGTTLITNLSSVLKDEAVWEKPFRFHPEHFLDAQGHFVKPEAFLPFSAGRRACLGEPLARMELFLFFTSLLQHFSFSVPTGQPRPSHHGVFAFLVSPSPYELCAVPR
human recombinant CYP3A4, sequence (P08684 whole entry): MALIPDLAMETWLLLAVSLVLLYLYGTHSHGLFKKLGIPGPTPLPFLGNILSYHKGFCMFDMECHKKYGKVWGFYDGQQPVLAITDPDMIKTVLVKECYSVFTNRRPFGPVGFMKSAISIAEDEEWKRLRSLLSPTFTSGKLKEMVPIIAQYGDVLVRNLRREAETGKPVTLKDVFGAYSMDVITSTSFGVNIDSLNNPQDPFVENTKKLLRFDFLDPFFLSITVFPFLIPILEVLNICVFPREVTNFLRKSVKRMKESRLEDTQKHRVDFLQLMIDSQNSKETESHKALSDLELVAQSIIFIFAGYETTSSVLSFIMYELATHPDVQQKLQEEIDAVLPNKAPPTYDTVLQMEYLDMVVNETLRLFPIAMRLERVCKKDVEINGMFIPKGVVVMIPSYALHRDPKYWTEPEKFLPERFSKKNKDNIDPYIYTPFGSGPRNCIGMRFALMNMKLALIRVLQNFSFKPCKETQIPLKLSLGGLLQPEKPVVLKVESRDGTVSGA

Turning to `COc1ccc(CCN(CCCC(C#N)(c2ccc(OC)c(OC)c2)C(C)C)CC(F)(F)F)cc1OC` (stereo not shown) [N-(2,2,2-trifluoroethyl)norverapamil], the IC50 on human recombinant CYP3A4 amounted to 1930 nM.
On to `Br.COc1ccc2c(c1)[C@@]13CCCC[C@H]1[C@@H](C2)N(C)CC3.O` [Dextromethorphan, 3 Methoxy-17-methylmorphinan hydrobromide monohydrate], for which the plasma level result in data set [1] (fast metabolizers, 30 mg dose, four hours post ingestion) was “less than 5 ng/mL”; in data set [1] (intermediate metabolizers, oral 30 mg, 4 hours) it was 10 to 20 ng/mL; in data set [1] (intermediate metabolizers, oral 30 mg, 24 hours postingestion), “less than 5 ng/mL”; in data set [1] (oral 30 mg, 4 hours (continues the poor metabolizers passage of b121)) it was “greater than 10 ng/mL”; in data set [1] (oral 30 mg, 24 hours (continues the poor metabolizers passage of b121)), “greater than 5 ng/mL”. Moreover, in data set [2], the “ratio of metabolite to parent drug in 8 hour urine sample” value is 10 to 1. For the same compound, the “part of the dose forming minor metabolites (D-methoxymorphinane, D-hydroxmorphinane)” value in data set [3] is listed as “Less than 15%”. In addition, the IC50 on human recombinant CYP2A6 [4] was 1820 nM.
In the case of `CN1CC[C@]23CCCC[C@H]2[C@H]1Cc1ccc(OCC(F)(F)F)cc13` [O-(2,2,2-trifluoroethyl)-N-methylmorphinan], the IC50 on human recombinant CYP2A6 [5] amounted to 425 nM.
